How the values were obtained:
[1] = test system: Tyrosine-protein kinase ABL1 (Homo sapiens), P00519 [E255K]
[2] = molecular target: Death-associated protein kinase 2 (Homo sapiens) (UniProt Q9UIK4)
[3] = molecular target: Histamine H2 receptor (Homo sapiens) (UniProt P25021); settings: Compound concentration 10.0 uM
[4] = molecular target: Serine/threonine-protein kinase SIK1 (Homo sapiens) (UniProt P57059)
[5] = molecular target: Protein kinase C eta type (Homo sapiens) (UniProt P24723)
[6] = molecular target: Calcium-dependent protein kinase 1 (Plasmodium falciparum) (UniProt P62344)
[7] = molecular target: Epidermal growth factor receptor (Homo sapiens) (UniProt P00533)
[8] = molecular target: T1, Mitogen-activated protein kinase kinase kinase 5 (Homo sapiens) (UniProt Q99683)
T1 sequence (whole entry): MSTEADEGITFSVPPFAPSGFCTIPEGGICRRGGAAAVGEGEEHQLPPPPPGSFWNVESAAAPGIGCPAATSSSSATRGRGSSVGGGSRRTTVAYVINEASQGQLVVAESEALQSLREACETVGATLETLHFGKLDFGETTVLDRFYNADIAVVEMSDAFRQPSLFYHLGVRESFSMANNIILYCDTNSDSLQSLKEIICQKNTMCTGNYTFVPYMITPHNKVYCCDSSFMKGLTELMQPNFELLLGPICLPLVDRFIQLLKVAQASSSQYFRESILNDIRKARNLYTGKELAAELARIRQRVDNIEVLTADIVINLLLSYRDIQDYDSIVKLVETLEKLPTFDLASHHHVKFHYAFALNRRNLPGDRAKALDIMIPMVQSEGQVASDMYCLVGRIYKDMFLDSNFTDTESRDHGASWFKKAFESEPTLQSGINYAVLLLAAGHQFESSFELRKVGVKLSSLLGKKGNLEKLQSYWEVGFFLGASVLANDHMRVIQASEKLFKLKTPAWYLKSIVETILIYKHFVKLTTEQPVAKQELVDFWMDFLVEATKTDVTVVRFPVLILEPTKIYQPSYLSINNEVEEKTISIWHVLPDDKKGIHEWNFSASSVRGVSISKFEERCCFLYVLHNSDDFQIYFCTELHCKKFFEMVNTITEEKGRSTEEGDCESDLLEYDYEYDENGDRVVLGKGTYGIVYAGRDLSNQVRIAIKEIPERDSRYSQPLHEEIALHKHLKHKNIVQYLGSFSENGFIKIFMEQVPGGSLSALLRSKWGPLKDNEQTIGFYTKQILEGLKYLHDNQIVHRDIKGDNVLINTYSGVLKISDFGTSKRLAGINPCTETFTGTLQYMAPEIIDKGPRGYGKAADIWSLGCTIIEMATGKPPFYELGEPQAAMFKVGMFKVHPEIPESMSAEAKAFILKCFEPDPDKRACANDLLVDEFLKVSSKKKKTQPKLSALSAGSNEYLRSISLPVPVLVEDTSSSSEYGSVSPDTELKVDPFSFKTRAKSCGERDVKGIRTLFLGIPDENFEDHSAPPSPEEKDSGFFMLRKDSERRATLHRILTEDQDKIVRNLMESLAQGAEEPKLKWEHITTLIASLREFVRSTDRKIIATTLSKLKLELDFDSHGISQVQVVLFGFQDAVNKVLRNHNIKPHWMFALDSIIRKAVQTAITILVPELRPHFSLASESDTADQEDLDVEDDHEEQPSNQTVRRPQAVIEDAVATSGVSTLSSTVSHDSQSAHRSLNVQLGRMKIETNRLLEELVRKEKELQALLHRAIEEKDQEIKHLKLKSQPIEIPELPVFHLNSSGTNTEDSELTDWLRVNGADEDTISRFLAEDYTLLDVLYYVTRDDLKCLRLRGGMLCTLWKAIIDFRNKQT

[9] = molecular target: Mitogen-activated protein kinase kinase kinase kinase 5 (Homo sapiens) (UniProt Q9Y4K4)
Sequence of Mitogen-activated protein kinase kinase kinase kinase 5 (Homo sapiens) (Q9Y4K4 whole entry, looked up): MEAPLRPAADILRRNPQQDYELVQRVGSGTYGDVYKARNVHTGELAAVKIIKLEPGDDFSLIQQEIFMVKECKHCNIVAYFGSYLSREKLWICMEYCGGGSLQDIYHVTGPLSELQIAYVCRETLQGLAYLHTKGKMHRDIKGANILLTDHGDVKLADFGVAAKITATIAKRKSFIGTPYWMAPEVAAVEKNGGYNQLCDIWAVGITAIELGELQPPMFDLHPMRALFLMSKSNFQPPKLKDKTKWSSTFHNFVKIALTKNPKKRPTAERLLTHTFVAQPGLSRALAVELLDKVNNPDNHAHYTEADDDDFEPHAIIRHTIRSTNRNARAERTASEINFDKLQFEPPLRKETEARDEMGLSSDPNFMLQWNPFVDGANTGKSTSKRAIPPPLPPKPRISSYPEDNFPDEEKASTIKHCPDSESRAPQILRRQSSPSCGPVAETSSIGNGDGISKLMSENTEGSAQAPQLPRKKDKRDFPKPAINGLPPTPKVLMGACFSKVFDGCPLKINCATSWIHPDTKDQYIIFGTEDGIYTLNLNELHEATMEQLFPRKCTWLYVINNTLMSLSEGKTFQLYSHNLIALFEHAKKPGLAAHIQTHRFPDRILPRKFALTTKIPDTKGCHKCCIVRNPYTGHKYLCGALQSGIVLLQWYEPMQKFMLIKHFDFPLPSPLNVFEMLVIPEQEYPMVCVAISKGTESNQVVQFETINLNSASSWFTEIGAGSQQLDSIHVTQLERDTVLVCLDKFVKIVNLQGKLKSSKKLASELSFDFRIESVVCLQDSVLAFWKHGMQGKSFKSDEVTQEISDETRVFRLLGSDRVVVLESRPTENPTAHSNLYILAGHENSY

[10] = molecular target: Sigma intracellular receptor 2 (Homo sapiens, UniProt Q5BJF2); assay: GPCRScan assay: inhibition of Sigma 2; parameters: radioligand conc. used [nm] 5.0, parental cells HEKT
Sequence of Sigma intracellular receptor 2 (Q5BJF2 whole entry): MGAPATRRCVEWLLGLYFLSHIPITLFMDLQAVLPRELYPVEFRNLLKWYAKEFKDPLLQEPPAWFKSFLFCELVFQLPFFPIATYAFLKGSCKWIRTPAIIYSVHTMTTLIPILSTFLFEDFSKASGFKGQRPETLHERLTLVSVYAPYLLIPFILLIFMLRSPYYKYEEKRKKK

[11] = molecular target: Myosin light chain kinase family member 4 (Homo sapiens) (UniProt Q86YV6)
[12] = molecular target: Receptor tyrosine-protein kinase erbB-3 (Homo sapiens) (UniProt P21860)
Sequence of Receptor tyrosine-protein kinase erbB-3 (Homo sapiens) (P21860 whole entry): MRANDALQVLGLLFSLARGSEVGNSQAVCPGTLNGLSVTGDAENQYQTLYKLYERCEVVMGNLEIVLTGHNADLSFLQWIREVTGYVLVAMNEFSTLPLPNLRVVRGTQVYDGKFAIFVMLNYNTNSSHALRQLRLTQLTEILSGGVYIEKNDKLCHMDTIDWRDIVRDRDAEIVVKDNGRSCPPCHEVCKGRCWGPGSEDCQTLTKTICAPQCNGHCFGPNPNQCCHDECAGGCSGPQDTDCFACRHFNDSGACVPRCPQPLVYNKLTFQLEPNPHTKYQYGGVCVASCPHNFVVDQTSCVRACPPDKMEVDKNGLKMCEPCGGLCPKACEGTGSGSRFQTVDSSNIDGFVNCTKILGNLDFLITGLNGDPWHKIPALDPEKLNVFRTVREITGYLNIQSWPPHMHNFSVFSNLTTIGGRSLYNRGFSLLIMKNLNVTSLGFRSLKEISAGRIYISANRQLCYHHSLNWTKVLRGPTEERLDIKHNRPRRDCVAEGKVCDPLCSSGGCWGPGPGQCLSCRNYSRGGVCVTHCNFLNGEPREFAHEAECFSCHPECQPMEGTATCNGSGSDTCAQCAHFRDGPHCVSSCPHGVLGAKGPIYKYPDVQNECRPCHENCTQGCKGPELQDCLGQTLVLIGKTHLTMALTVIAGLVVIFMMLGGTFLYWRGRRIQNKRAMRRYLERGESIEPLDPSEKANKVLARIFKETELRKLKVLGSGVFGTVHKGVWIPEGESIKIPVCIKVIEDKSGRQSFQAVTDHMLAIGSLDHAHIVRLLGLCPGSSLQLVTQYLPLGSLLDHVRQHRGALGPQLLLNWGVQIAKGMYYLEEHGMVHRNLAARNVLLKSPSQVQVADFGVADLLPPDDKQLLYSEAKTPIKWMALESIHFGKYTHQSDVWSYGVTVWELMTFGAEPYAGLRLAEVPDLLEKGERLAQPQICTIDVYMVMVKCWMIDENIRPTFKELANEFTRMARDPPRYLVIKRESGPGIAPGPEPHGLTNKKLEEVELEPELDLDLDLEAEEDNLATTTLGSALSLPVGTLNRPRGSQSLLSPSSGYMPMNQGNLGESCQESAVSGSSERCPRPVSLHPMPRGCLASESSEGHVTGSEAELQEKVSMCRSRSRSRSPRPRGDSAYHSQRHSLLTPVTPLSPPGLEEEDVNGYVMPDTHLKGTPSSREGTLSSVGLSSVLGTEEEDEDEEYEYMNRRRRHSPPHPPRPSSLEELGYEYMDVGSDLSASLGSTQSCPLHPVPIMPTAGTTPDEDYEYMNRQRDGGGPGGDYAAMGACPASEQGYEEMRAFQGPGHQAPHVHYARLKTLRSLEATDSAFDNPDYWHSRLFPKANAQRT

[13] = molecular target: ALK tyrosine kinase receptor (Homo sapiens) (UniProt Q9UM73)
Sequence of ALK tyrosine kinase receptor (Homo sapiens) (Q9UM73 19-1620 limits assumed): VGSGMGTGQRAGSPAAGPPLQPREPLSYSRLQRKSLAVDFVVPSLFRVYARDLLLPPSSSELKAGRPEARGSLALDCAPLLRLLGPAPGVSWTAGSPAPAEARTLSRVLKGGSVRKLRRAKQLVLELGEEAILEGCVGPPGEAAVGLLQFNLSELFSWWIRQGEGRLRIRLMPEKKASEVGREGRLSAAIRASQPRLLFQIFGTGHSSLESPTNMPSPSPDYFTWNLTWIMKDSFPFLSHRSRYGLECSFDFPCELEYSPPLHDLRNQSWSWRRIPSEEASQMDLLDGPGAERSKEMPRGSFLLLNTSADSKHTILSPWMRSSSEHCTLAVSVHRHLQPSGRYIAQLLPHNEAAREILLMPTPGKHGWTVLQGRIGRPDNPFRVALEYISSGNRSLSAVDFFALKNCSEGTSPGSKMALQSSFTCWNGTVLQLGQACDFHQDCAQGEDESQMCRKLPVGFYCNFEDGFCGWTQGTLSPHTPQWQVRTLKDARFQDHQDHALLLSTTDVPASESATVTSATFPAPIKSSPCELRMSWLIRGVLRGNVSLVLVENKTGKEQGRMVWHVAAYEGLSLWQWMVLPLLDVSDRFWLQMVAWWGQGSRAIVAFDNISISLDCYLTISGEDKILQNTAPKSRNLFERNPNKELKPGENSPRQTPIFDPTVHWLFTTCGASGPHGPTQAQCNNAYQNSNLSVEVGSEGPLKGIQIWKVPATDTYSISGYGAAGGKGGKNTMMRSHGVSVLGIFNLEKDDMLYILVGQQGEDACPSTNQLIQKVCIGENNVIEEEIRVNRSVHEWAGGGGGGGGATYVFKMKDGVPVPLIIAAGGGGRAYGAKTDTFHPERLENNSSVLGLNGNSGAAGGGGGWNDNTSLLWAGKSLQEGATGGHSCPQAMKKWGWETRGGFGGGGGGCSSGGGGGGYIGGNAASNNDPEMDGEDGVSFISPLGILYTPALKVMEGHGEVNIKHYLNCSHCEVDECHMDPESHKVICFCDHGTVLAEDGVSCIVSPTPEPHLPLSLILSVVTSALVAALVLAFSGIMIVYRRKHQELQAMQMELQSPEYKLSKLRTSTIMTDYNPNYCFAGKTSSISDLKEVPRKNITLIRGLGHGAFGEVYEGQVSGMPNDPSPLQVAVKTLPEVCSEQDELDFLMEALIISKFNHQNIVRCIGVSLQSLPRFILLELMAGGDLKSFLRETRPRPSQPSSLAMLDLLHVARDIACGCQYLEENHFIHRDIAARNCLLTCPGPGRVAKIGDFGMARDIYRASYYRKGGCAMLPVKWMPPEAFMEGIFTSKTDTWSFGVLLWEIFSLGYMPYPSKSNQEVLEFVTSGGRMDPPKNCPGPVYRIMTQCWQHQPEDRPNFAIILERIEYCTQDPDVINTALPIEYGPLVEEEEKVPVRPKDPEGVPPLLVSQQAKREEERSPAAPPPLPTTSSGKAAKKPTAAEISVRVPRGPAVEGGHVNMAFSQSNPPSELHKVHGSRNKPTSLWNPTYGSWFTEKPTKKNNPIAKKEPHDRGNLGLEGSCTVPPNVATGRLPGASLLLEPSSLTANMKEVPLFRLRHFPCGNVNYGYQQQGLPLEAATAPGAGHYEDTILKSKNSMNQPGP

[14] = molecular target: Serine/threonine-protein kinase PAK 5 (Homo sapiens) (UniProt Q9P286)
[15] = molecular target: Serine/threonine-protein kinase haspin (Homo sapiens) (UniProt Q8TF76)
[16] = molecular target: Tyrosine-protein kinase JAK1 (Homo sapiens) (UniProt P23458)
[17] = molecular target: Cyclin-dependent kinase 11B (Homo sapiens) (UniProt P21127)
[18] = molecular target: Beta-3 adrenergic receptor (Homo sapiens) (UniProt P13945); settings: Compound concentration 10.0 uM
[19] = molecular target: T2, Rhodopsin kinase GRK7 (Homo sapiens) (UniProt Q8WTQ7)
T2 sequence (whole entry): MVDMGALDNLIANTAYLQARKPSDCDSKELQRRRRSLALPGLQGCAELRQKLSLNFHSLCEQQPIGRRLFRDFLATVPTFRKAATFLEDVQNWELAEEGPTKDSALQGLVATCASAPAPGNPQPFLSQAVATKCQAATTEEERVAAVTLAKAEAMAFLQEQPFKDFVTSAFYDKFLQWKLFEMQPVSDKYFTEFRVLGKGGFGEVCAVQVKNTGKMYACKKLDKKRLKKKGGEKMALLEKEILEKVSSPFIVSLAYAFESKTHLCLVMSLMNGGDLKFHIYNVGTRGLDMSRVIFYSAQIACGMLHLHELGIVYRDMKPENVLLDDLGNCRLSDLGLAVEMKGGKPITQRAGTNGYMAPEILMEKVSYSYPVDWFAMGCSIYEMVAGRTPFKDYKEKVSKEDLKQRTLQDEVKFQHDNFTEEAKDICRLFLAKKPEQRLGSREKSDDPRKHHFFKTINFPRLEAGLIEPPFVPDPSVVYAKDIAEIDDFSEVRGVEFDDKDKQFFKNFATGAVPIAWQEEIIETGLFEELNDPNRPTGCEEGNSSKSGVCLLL

[20] = molecular target: Mitogen-activated protein kinase kinase kinase 4 (Homo sapiens) (UniProt Q9Y6R4)
[21] = Compound concentration 1000.0 nM
[22] = Compound concentration 100.0 nM

Sequence of Histamine H2 receptor (Homo sapiens) (P25021 whole entry): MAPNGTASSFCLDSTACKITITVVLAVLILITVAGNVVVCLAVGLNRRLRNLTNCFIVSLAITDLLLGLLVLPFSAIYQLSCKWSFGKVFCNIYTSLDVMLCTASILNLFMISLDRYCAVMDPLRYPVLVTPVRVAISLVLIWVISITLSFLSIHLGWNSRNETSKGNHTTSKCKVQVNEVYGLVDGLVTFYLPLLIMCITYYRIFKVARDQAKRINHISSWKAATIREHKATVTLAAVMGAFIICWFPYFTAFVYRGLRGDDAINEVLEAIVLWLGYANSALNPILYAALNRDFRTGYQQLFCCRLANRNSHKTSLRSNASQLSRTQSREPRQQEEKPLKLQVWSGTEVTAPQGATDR
Sequence of Protein kinase C eta type (Homo sapiens) (P24723 whole entry): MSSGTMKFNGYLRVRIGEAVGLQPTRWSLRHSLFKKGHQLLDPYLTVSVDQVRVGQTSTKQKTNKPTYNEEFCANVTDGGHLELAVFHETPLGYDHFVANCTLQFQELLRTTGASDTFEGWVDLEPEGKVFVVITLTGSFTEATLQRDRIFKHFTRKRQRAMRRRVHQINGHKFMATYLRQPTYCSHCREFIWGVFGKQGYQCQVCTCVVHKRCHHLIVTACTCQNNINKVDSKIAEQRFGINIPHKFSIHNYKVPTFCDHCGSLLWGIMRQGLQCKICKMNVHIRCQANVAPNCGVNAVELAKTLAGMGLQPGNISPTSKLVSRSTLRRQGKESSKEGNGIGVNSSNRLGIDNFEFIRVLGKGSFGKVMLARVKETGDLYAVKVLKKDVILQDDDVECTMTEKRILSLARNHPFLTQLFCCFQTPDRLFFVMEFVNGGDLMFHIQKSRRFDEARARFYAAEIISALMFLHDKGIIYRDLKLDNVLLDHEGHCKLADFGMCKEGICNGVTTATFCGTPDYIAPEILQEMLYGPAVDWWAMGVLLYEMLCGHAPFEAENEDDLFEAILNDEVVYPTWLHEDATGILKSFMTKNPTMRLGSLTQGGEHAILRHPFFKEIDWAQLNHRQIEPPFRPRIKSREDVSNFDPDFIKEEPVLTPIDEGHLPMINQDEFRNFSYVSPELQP

For `C[C@@H]1CN(c2cc(-c3nn(C)c4ccc(OC5(C)CC5)cc34)ncn2)C[C@H](C)O1` [MLi-2-NC], the residual activity [1, 21] was 79%, the residual activity [2, 21] was 89% and the inhibition [3] was 18.4%. It also gave a residual activity [4, 21] of 96%, a residual activity [5, 21] of 100% and a residual activity [6, 21] of 83%. The residual activity [7, 21] was 97%, the residual activity [8, 21] was 100% and the residual activity [9, 21] was 100%. For the same compound, the Ki [10] was 1070 nM, the residual activity [11, 21] was 100% and the residual activity [12, 21] was 57%. It also gave a residual activity [13, 21] of 64%, a residual activity [14, 21] of 84% and a residual activity [15, 21] of 99%. It also gave a residual activity [16, 21] of 100%, a residual activity [17, 21] of 88% and an inhibition [18] of 11.8%. For the same compound, the residual activity [19, 21] was 100% and the residual activity [20, 21] was 100%.

With `C[C@@H]1CN(c2cc(-c3n[nH]c4ccc(OC5(C)CC5)cc34)ncn2)C[C@H](C)O1` [MLi-2] the residual activity [1, 22] was 66%, the residual activity [2, 22] was 85% and the inhibition [3] was 6.26%. It also gave a residual activity [4, 22] of 100%, a residual activity [5, 22] of 92% and a residual activity [6, 22] of 94%. The residual activity [7, 22] was 76%, the residual activity [8, 22] was 88% and the residual activity [9, 22] was 100%. For the same compound, the Ki [10] was 4600 nM, the residual activity [11, 22] was 100% and the residual activity [12, 22] was 100%. For the same compound, the residual activity [13, 22] was 65%, the residual activity [14, 22] was 86% and the residual activity [15, 22] was 74%. The residual activity [16, 22] was 88%, the residual activity [17, 22] was 88% and the inhibition [18] was -5.99%. It also gave a residual activity [19, 22] of 64% and a residual activity [20, 22] of 100%.

Reference: ChEMBL document CHEMBL4507291 (2021)
